Experiments:
[1] = target: Carbonic anhydrase 5A, mitochondrial (Homo sapiens) (UniProt P35218); test: Activation of human recombinant CA5A after 15 mins by stopped-flow CO2 hydration assay
[2] = target: Carbonic anhydrase 2 (Homo sapiens) (UniProt P00918); test: Activation of human recombinant CA2 after […] by stopped-flow CO2 hydration assay
[3] = target: Carbonic anhydrase 7 (Homo sapiens) (UniProt P43166); test: Activation of human recombinant CA7 after 15 mins by stopped-flow CO2 hydration assay
[4] = target: Carbonic anhydrase 5B, mitochondrial (Homo sapiens) (UniProt Q9Y2D0); test: Activation of human recombinant CA5B after 15 mins by stopped-flow CO2 hydration assay
[5] = target: Carbonic anhydrase 12 (Homo sapiens) (UniProt O43570); test: Activation of human recombinant CA12 after 15 mins by stopped-flow CO2 hydration assay
[6] = target: Carbonic anhydrase 14 (Homo sapiens) (UniProt Q9ULX7); test: Activation of human recombinant CA14 after 15 mins by stopped-flow CO2 hydration assay
[7] = target: Carbonic anhydrase 9 (Homo sapiens) (UniProt Q16790); test: Activation of human recombinant CA9 after 15 mins by stopped-flow CO2 hydration assay
[8] = target: Carbonic anhydrase 13 (Mus musculus) (UniProt Q9D6N1); test: Activation of mouse recombinant CA13 after 15 mins by stopped-flow CO2 hydration assay
Chain of Carbonic anhydrase 13 (Mus musculus) (Q9D6N1 whole entry, looked up): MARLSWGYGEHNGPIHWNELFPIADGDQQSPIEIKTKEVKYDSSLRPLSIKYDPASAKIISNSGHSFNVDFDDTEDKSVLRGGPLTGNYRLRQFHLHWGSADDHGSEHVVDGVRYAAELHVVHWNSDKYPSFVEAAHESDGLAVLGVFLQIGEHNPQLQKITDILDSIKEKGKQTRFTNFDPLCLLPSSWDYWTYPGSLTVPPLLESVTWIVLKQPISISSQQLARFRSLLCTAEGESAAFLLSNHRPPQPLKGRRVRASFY

Chain of Carbonic anhydrase 12 (Homo sapiens) (O43570 whole entry): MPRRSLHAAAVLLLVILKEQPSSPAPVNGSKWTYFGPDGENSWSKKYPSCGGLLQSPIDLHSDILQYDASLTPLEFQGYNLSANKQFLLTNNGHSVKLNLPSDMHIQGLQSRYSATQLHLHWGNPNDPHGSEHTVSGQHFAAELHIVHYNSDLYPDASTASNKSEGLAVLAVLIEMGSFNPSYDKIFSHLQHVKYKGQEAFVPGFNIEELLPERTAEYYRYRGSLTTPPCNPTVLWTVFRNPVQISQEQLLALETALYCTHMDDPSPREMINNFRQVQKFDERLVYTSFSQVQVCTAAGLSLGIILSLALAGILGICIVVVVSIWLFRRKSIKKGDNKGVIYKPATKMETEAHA
Chain of Carbonic anhydrase 5A, mitochondrial (Homo sapiens) (P35218 whole entry): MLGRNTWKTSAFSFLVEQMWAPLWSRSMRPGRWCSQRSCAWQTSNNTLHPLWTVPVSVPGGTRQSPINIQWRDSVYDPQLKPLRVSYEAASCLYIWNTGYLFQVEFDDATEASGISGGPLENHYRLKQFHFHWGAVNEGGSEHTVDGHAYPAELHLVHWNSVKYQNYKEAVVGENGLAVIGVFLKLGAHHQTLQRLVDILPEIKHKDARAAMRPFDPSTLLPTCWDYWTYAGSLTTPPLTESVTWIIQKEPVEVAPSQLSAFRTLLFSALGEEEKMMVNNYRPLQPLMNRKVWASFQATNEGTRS
Chain of Carbonic anhydrase 14 (Homo sapiens) (Q9ULX7 whole entry): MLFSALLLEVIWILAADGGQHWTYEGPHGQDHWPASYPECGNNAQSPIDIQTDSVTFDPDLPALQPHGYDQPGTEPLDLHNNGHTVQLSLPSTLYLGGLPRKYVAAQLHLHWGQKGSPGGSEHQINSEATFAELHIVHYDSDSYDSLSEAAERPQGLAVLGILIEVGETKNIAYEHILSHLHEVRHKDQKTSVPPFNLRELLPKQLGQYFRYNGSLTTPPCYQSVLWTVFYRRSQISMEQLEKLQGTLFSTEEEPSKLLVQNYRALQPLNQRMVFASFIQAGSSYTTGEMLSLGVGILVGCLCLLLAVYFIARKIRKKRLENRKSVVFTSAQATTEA
Chain of Carbonic anhydrase 7 (Homo sapiens) (P43166 whole entry): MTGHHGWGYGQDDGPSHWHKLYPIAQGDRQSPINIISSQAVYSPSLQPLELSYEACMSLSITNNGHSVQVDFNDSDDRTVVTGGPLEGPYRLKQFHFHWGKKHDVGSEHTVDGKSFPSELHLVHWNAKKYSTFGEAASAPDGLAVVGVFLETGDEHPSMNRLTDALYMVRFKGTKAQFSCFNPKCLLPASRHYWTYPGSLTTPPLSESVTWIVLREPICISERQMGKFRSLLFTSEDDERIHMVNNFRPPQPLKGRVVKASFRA
Chain of Carbonic anhydrase 5B, mitochondrial (Homo sapiens) (Q9Y2D0 whole entry): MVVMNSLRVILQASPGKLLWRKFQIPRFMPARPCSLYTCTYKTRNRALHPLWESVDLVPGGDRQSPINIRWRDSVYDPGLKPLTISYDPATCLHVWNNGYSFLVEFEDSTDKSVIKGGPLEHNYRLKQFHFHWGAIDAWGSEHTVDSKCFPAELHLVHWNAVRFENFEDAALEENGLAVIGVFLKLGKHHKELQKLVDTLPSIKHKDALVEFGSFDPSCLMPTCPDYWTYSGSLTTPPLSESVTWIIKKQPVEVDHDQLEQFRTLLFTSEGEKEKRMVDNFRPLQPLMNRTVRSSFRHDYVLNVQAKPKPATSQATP

Ka [1] [µM] | Ka [2] [µM] | Ka [3] [µM] | Ka [4] [µM] | Ka [5] [µM] | Ka [6] [µM] | Ka [7] [µM] | Ka [8] [µM] | SMILES
1.13 | 1.13 | 57 | 0.89 | 26 | 16 | 37 | 16 | N[C@@H](Cc1c[nH]c2ccccc12)C(=O)O
1.24 | 0.37 | 39 | 1.35 | 28 | 18 | 43 | 0.81 | N[C@H](Cc1c[nH]c2ccccc12)C(=O)O
63 |  | 60 |  | 0.41 | 36 | 0.87 |  | CNC[C@@H](O)c1ccc(O)c(O)c1
